ChEMBL document CHEMBL3301361, “Experimental in vitro DMPK and physicochemical data on a set of publicly disclosed compounds”
Non-standard residues stand in square brackets, D forms with d. Residues, ends and D or L forms follow the SMILES beside them. Dip = N[C@H](C(=O)O)C(c1ccccc1)c1ccccc1; Chg = N[C@H](C(=O)O)C1CCCCC1; NMeA = CN[C@@H](C)C(=O)O

Key:
physchem = settings: octan-1-ol/water
in vitro = settings: human, plasma

logD (physchem; pH 7.4, LogD7.4) | fraction unbound at 5 h (in vitro; PPB) | Compound | logD (physchem; pH 7.4) | fraction unbound at 5 h (in vitro)
2.03 | 0.02 | O=C(Cc1ccc(Oc2ccccc2)cc1)NO |  | 
3.2 | 0.0245 | CC(=O)c1cn(Cc2ccccc2)c(=O)n(Cc2ccc(F)cc2)c1=O |  | 
2.01 | 0.072 | O=c1[nH]c([C@@H]2CCCN2)nc2c1oc1ccc(Cl)cc12 |  | 
-0.34 | 0.0606 | Cc1ccc2c(c1)c(-c1ccnc3c(S(C)(=O)=O)cccc13)c(C)n2CC(=O)O |  | 
2.08 | 0.11 | N#Cc1c(N)nc2c(c1N)CC(COc1ccccc1)O2 (configuration not stated) |  | 
2.56 | 0.101 | CN(C)CCCN1c2ccccc2Sc2ccccc21 [PROMAZINE] |  | 
1.87 | 0.19 | Nc1nc(Nc2ccc(S(N)(=O)=O)cc2)nn1C(=O)c1c(F)cccc1F [JNJ-7706621] |  | 
2.74 | 0.212 | C[C@H](Nc1ccc2ncn(-c3cc(C4CC4)[nH]n3)c2n1)c1ncc(F)cn1 |  | 
2.9 | 0.0467 | Cc1cnc(Nc2cc(N3CCN(C)CC3)nc(N[C@@H](C)c3ccc(F)cn3)n2)s1 |  | 
3.4 | 0.0081 | COc1cc2ncc(C(N)=O)c(Nc3ccccc3C)c2cc1OC |  | 
1.49 | 0.511 | CN[C@@H](C)C(=O)N[C@H](C(=O)N[C@H]1CCN(Cc2ccccc2)C1)C1CCCCC1 |  | 
0.22 | 0.0268 | NC(=O)c1cncc(-c2ccc([C@H]3CC[C@H](CC(=O)O)CC3)cc2)c1 |  | 
 |  | CS(=O)(=O)c1ccc2c(c1)N(CCN1CCC(NCc3ccc4c(n3)NC(=O)CO4)CC1)C(=O)CO2 | -0.51 | 0.145
1.72 | 0.212 | COc1ccc([C@]2(O)CC[C@H](N3CC[C@@H](NC(=O)CNC(=O)c4cccc(C(F)(F)F)c4)C3)CC2)cn1 |  | 
 |  | CCS(=O)(=O)c1ccc2c(c1)N(CCN1CCC(NCc3ccc4c(n3)NC(=O)CO4)CC1)C(=O)CO2 | -0.11 | 0.304
2.01 | 0.201 | Nc1nc2nc(-c3cccs3)cc(C(F)(F)F)n2n1 |  | 
1 | 0.415 | O=C(c1cccc(Cc2n[nH]c(=O)c3ccccc23)c1)N1CCOCC1 |  | 
 |  | O=C1COc2ccc(CNC3CCN(CCN4C(=O)COc5ccc(Br)cc54)CC3)nc2N1 | 1.42 | 0.0262
 |  | NC(=O)c1ccc(Oc2cccc3cccnc23)c([N+](=O)[O-])c1 | 1.7 | 0.0383
2.42 | 0.176 | CN[C@@H](C)C(=O)N[C@H](C(=O)N1CCC[C@H]1C(=O)N[C@H](C(=O)OC)C(c1ccccc1)c1ccccc1)C1CCCCC1 (H-[NMeA][Chg]P[Dip]-OMe) |  | 
2.23 | 0.0544 | N#Cc1cnn2c(N)cc(-c3ccc(F)cc3)nc12 |  | 
2.91 | 0.0383 | CNc1c(Br)cnc2nc(-c3ccc(OCCN4CCN(C)CC4)cc3)[nH]c12 |  | 
2.14 | 0.212 | CNc1c(C(N)=O)cnc2[nH]c(-c3ccc(OCCN4CCOCC4)cc3)nc12 |  | 
1.97 | 0.0768 | COc1c2occc2cc2ccc(=O)oc12 [METHOXSALEN] |  | 
3.47 | 0.0149 | Cc1ccc(NC(=O)c2ccnc(N3CCOCC3)c2)cc1NC(=O)c1ccc(OCc2ccccn2)cc1 |  | 
1.08 | 0.179 | NC(=O)c1cnc(N[C@H]2CCCNC2)c2cc(Br)sc12 |  | 

logD (physchem; pH 7.4, LogD7.4) | fraction unbound at 5 h (in vitro; PPB) | Compound | logD (physchem; pH 7.4) | fraction unbound at 5 h (in vitro)
3.2 | 0.0343 | Nc1ncnc2nc(-c3ccc(N4CCOCC4)nc3)cc(-c3cccc(Br)c3)c12 |  | 
0.8 | 0.454 | Cc1ccc(S(=O)(=O)Nc2c(C(=O)N[C@@H](C)C(C)(C)C)c(C)nn2C2CCN(C)CC2)cc1 |  | 
2.72 | 0.0219 | Cc1cc(Nc2nc(O[C@H](C)c3ccc(F)cn3)c(C#N)nc2C)[nH]n1 |  | 
 |  | CC(C)[C@H]1C(=O)N[C@H](CO)Cc2ccccc2N1C | 2.03 | 0.371
2.1 | 0.107 | CC(=O)Nc1cccc(Nc2nc(NC3CC3)n3ncc(C#N)c3n2)c1 |  | 
2.97 | 0.0179 | COc1ccc(-c2cc(Nc3ccn(C)n3)n3ncc(C#N)c3n2)cc1 |  | 
1.32 | 0.376 | CN[C@@H](C)C(=O)N[C@H](C(=O)N[C@H]1CCCN(C(=O)Cc2ccccc2)C1)C1CCCCC1 |  | 
1.73 | 0.16 | Cc1cc(Nc2nc(N[C@@H](C)c3ccc(F)cn3)cnc2C)[nH]n1 |  | 
0.81 | 0.276 | CO[C@@H]1CN(CCn2c(=O)ccc3ccc(C#N)cc32)CC[C@H]1NCc1ccc2c(n1)NC(=O)CO2 |  | 
1.87 | 0.0676 | CC(=O)Nc1ccc2ccn(-c3cc(NCCCN4CCCC4)n4ncc(C#N)c4n3)c2c1 |  | 
3.48 | 0.0647 | N#Cc1cccc(C(=O)NC[C@@H](O)CN2CCC(Oc3ccc(Cl)c(Cl)c3)CC2)c1 |  | 
2.83 | 0.0119 | Cc1ccc(NC(=O)c2ccc(Cl)c(C(F)(F)F)c2)cc1C(=O)Nc1cccnc1 |  | 
2.67 | 0.0676 | CC(C)CCOc1ccc(N)cc1 |  | 
1.5 | 0.112 | COc1cc(OC)c2nc(C)c3c(c2c1)N(c1ccc(O)cc1)CC3 |  | 
3.36 | 0.0374 | CN(C)CCCN1c2ccccc2CCc2ccc(Cl)cc21 [CLOMIPRAMINE] |  | 
1.23 | 0.563 | CNC(=O)c1snnc1-c1ccccc1 |  | 
2.63 | 0.0191 | CNc1c(Cl)cnc2nc(-c3ccc(OCCN4CCOCC4)cc3)[nH]c12 |  | 
0.2 | 0.276 | COc1ncc2ccc(=O)n(CCN3CCC(NCc4cc5c(cn4)OCCO5)CC3)c2n1 |  | 
-0.51 | 0.0191 | Cc1cn([C@H]2CCCN(Cc3ccc(C(=O)O)c(Oc4cccc(Br)c4)c3)C2)c(=O)[nH]c1=O |  | 
2.53 | 0.121 | COc1cc(Nc2nc(N[C@@H](C)c3ncc(F)cn3)ncc2Cl)n[nH]1 |  | 
2.75 | 0.105 | CCN(CC)CCNC(=O)c1c(C)[nH]c(/C=C2\C(=O)Nc3ccc(Cl)cc32)c1C [SU-11652] |  | 
1.75 | 0.173 | Cc1[nH]c(/C=C2\C(=O)Nc3ccc(F)cc32)c(C)c1C(=O)NCCN(C)C |  | 
2.58 | 0.0409 | CC(=O)Nc1ccc2ccn(-c3cc(NCCCCO)n4ncc(C#N)c4n3)c2c1 |  | 
 |  | Oc1ncc(NCc2ccccc2)c(O)n1 | 0.82 | 0.635
2.78 | 0.0081 | NC(=O)c1cnc(N[C@H]2CCCNC2)c2cc(-c3ccc(Cl)cc3)sc12 |  | 
2.56 | 0.112 | CNc1c(Br)cnc2nc(-c3ccc(OCCN4CCCCC4)cc3)[nH]c12 |  | 

logD (physchem; pH 7.4, LogD7.4) | fraction unbound at 5 h (in vitro; PPB) | Compound | logD (physchem; pH 7.4) | fraction unbound at 5 h (in vitro)
2.16 | 0.258 | Cc1ncc(-c2nc(Nc3ccc(C(=O)N4CC[C@H](N(C)C)C4)cc3)ncc2F)n1C(C)C |  | 
0.22 | 0.0179 | CC[C@H](c1ccc(C(=O)O)c(Oc2cccc(Cl)c2)c1)N1CCC[C@H](n2cc(C)c(=O)[nH]c2=O)C1 |  | 
2.86 | 0.0594 | Cc1cc(Nc2nc(O[C@@H](C)c3ccc(F)cn3)c(C#N)nc2C)[nH]n1 |  | 
2.42 | 0.0676 | COc1ccc(-c2cc(N)n3ncc(C#N)c3n2)cc1 |  | 
3.34 | 0.0383 | C[C@@H](NC(=O)C1CCCCN1C)c1ccc(Nc2ncc3cc(-c4ccncc4)ccc3n2)cc1 (some centres not stated) |  | 
3.12 | 0.0032 | COc1cc(C(=O)NC[C@@H](O)CN2CCC(Oc3ccc(Cl)c(Cl)c3)CC2)ccc1N |  | 
1.45 | 0.888 | CC(C)(C(=O)c1cccnc1)c1cccnc1 [METYRAPONE] |  | 
3.3 | 0.0391 | Cc1c[nH]c(-c2cc(NC(=O)c3ccc(C(F)(F)F)nc3C)ccc2Cl)n1 |  | 
1.61 | 0.319 | CNc1nc2ccccc2n1Cc1sc2c(c1C(=O)N1CC[C@@H](O)C1)c(=O)n(C)c(=O)n2CC(C)C |  | 
1.72 | 0.289 | COc1ccc(NC(=O)c2ccnc(N)n2)cc1 |  | 
1.6 | 0.0457 | Cc1cn([C@H]2CCCN(S(=O)(=O)c3ccc(O)c(Oc4cccc(F)c4)c3)C2)c(=O)[nH]c1=O |  | 
2.9 | 0.0374 | COc1ccc(CC(=O)Nc2nc3ccccc3[nH]2)cc1 |  | 
 |  | Cc1ccc(C(=O)N(CCCN)[C@H](c2nc3cc(Cl)ccc3c(=O)n2Cc2ccccc2)C(C)C)cc1 | 2.88 | 0.0081
2.34 | 0.0179 | CCNC(=O)Nc1nc2cc(-c3cccnc3)ccc2[nH]1 |  | 
2.34 | 0.266 | CN[C@@H](C)C(=O)N[C@H](C(=O)N(C)[C@H]1CCCN(CCc2ccccc2)C1)C1CCCCC1 |  | 
2.85 | 0.0928 | CN[C@@H](C)C(=O)N[C@H](C(=O)N[C@H]1CCCN(CCc2ccc(C(F)(F)F)cc2)C1)C(C)(C)C |  | 
2.49 | 0.0179 | CS(=O)(=O)Cc1ccc2ccn(-c3cc(NC4CC4)n4ncc(C#N)c4n3)c2c1 |  | 
2.78 | 0.0499 | Cc1c(N)cccc1Cn1ccc(OCCc2cccs2)cc1=O [CG-400549] |  | 
2.24 | 0.0556 | CC(=O)Nc1ccc2ccn(-c3cc(NCCN4CCCC4)n4ncc(C#N)c4n3)c2c1 |  | 
3.23 | 0.0179 | CN1CCN(c2ccc3ncc(C(N)=O)c(Nc4ccc(Cl)cc4Cl)c3c2)CC1 |  | 
1.94 | 0.072 | O=C(O)CNCCNc1ccc(Cl)c(C(=O)NCC23CC4CC(CC(C4)C2)C3)c1 |  | 
2.68 | 0.0736 | Cc1cnc(Nc2cc(N3CCOCC3)nc(N[C@@H](C)c3ncc(F)cn3)n2)s1 |  | 
3.68 | 0.0447 | C[C@H]1O[C@@H](n2cnc3c(N)nc(OCC4CC45CC5)nc32)[C@H](O)[C@H]1Cl (some centres not stated) |  | 
2.61 | 0.228 | Cc1cc(Nc2nc(N[C@@H](C)c3ncc(F)cn3)nc(N3CCOCC3)c2Cl)n[nH]1 |  | 
